# Reference: patent publication US20250346582A1, “SPLEEN TYROSINE KINASE INHIBITORS AND METHODS OF USE THEREOF” (THE BOARD OF TRUSTEES OF THE UNIVERSITY OF ILLINOIS, priority 2022, published 2025)
# How the values were obtained:
# [1] = tested on: plasma membrane translocation of EGFP-Syk WT; assay: Subcellular localization of EGFP-Syk WT in DT40 cells; format: cell-based, chicken; conditions: IgM stimulation
# Description: DT40-Syk^−/− cells transfected with EGFP-Syk WT (or K220/K222A) and mCherry-mCherry-eMyoX-tPH were imaged under 100× magnification with a Nikon Eclipse Ti2 microscope using the NIS element software. For IgM stimulation, cells were dropped on the IgM-coated surface (10 ng/ml) covered with the imaging buffer (HBSS pH 7.4, 2 mM MgCl2, 1% FBS) and incubated for 10 min before imaging. Pearson's correlation coefficient (y) was calculated using Coloc 2, which is a Fiji's plugin for colocalization analysis. The plasma membrane was selected as the region of interest for calculation of the coefficient. Averages ±s.d.'s of γ values were calculated from triplicate determinations.
# [2] = tested on: phosphorylation of Syk, ERK1/2 and STAT3/5; assay: Western blot of phosphorylation in entospletinib-resistant MV4-11 cells; format: cell-based; conditions: 5 μM
# Description: (§1) Cells were seeded at a density of 3.0×10^5 cells/well prior to incubation with inhibitors. Cells were incubated with 1-5 μM of Syk inhibitors overnight and stimulated with different antibodies: IgG2 for AML cells, IgM for Raji B cells, and OKT3 (Biolegend) for Jurkat cells. The cells were lysed in NP40 lysis buffer (50 mM Tris, pH 7.5, 150 mM NaCl, 1 mM EDTA, 1% NP40, 10% glycerol, 10 mM NaF, 10 mM Na3VO4, and the protease inhibitor cocktail) at 4° C. and the cell debris was removed by centrifugation. Samples were analyzed by SDS-PAGE. Proteins were separated and transferred to Immobilon-P polyvinylidene difluoride membrane (Millipore Sigma). The membrane was blocked with 5% bovine serum albumin for 1 h and incubated overnight at 4° C. with various antibodies (1:1000 dilution for all antibodies). After the unbound antibodies were removed by washing with 0.1% Tris buffer saline with 0.1% Tween20, the membranes were incubated with the horseradish peroxidase secondary antibody (1:5000 dilution) for 1 h at room temperature. The membranes were washed three more times with 0.1% Tris buffer saline with 0.1% Tween20 to remove the unbound horseradish peroxidase secondary antibody before imaging. The chemiluminescence intensity of protein bands in the gel was analyzed and documented by the Azure 500Q Imaging System.
# (§2) Then the concentration was maintained at 5 μM.
# [3] = tested on: phosphorylation of ERK1/2 and STAT3/5; assay: Western blot of phosphorylation in HL60 cells; format: cell-based; conditions: RAS-mutated HL60 cells; 5 μM
# Description: FIGS. 3A-3D show the inhibition of the signaling activity and proliferation of HL-60 AML cells by Syk-cSH2 inhibitors. […] DMSO was used as a negative control and GAPDH as a gel loading control. […] (c) Inhibition of phosphorylation of Syk, STAT3/5 and ERK1/2 in patient-derived primary AML cells by WC36. Cells were cultured overnight in the presence of CD34+ cytokine supplement. DMSO was used as a negative control. Representative data from one (Patient 1) of four patient samples are shown here. (d) Inhibition of the proliferation of four patient AML cells by WC36 measured by the colony growth assay. The number of colonies after WC36 treatment was normalized to the enumerated colonies after DMSO treatment.
# as §1
# pZAP70 = molecular target: T1, pZAP70 (Homo sapiens, UniProt P43403); assay: Western blot inhibition of ZAP70 phosphorylation in Jurkat T cells; format: cell-based; conditions: Jurkat T cells stimulated by OKT3; 5 μM overnight
# T1 construct: host or cells: Jurkat T cells, OKT3-stimulated
# T1 sequence (P43403 1-619): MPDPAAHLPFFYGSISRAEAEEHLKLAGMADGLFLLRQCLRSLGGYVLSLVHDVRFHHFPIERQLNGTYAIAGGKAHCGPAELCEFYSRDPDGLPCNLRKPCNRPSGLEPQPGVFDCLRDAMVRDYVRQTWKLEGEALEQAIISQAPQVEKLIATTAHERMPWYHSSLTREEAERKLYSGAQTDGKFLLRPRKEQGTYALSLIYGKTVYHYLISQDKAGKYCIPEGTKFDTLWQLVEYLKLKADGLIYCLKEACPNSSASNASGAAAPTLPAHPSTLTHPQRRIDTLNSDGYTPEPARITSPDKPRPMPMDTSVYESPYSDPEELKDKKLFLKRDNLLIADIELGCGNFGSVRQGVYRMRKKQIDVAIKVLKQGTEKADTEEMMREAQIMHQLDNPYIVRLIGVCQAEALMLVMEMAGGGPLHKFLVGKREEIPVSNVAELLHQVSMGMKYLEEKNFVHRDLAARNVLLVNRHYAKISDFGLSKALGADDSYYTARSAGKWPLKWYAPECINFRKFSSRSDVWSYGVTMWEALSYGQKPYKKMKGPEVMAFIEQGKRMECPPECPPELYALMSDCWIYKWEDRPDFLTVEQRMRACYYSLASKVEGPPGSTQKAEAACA
# Description: (a) Cellular efficacy of WC35, WC36, and WC38 was determined by dose-dependent inhibition of Syk phosphorylation in Raji B cells. (b) Imax and IC50 values were determined by non-linear least-squares analysis of data using the equation: […] Each data represents average ±s.d. from triplicate measurements. […] Jurkat T cells were stimulated by OKT3. Cells were seeded at a density of 3.0×10^5 cells/well prior to incubation with inhibitors. […] IgG2 for AML cells, IgM for Raji B cells, and OKT3 (Biolegend) for Jurkat cells. […] Samples were analyzed by SDS-PAGE. Proteins were separated and transferred to Immobilon-P polyvinylidene difluoride membrane (Millipore Sigma). […] The chemiluminescence intensity of protein bands in the gel was analyzed and documented by the Azure […] Imaging System.
# MV4-11 cells = assay: Generation of drug-resistant MV4-11 cells under chronic treatment; format: cell-based; conditions: inhibitor increased from 0.5 to 5 μM over 10 weeks
# Description: as §2
# Syk [4] = molecular target: T2, Syk (Homo sapiens, UniProt P43405); assay: Mass spectrometry proteomics of WC36B-binding cellular proteins; format: cell-based; conditions: biotin as negative control
# T2 construct: host or cells: MV4-11 AML cells (naive and entospletinib-resistant)
# Description: (§3) Streptavidin-coated beads (Dynabeads™ M280 streptavidin beads; ThermoFisher) were washed twice with 1 ml of PBST (PBS+0.1% Tween 20) and resuspended in 100 μl of PBST. WC36B (or biotin) (10 mM) was added to 100 μl of the bead suspension and the mixture was incubated at room temperature for 15 min with gentle shaking. The mixture was then vortexed for 5 s and the tube was placed on a magnet for 1 min. After discarding the supernatant, the beads were resuspended in the same volume of the washing buffer. Washing is repeated three times to remove excess WC36B. WC36B-coated beads were then incubated with the cell lysate (MV-4-11) for 30 min at room temperature with gentle shaking. Protein-coated beads were separated with a magnet for 2-3 min and washed 4-5 times with PBS containing 0.1% BSA. The protein was then removed from the beads by boiling the beads in the SDS-polyacrylamide gel electrophoresis (PAGE) application buffer. Samples were concentrated for the mass spectrometry analysis and the western blot assay.
# MS analysis was performed to identify proteins captured by WC36B and biotin. […]
# Syk [5] = molecular target: T2, Syk; assay: Streptavidin pull down assay with WC36B in MV4-11 cells; format: cell-based; conditions: MV4-11 cells, 5 μM for 24 h, immunoblotting
# Description: as §3
structure (smiles),measurement,setting,value
CS(=O)(=O)N1CCN(Cc2cc3nc(-c4cccc5[nH]ncc45)nc(N4CCOCC4)c3s2)CC1 [GDC-0941],plasma membrane translocation of EGFP-Syk WT,[1],greatly suppressed
"c1cn2cc(-c3ccc4cn[nH]c4c3)nc(Nc3ccc(N4CCOCC4)cc3)c2n1 [entospletinib, reference compound]","inhibition of phosphorylation of Syk, ERK1/2 and STAT3/5",[2],could not inhibit phosphorylation of ERK1/2 and STAT3/5 in resistant MV4-11 cells while still potently inhibiting Syk phosphorylation
same,inhibition of phosphorylation of ERK1/2 and STAT3/5,[3],could not suppress phosphorylation of ERK1/2 and STAT3/5
same,inhibition of ZAP-70 phosphorylation,pZAP70,significantly inhibited ZAP-70 phosphorylation
same,development of acquired resistance,MV4-11 cells,readily developing resistance to entospletinib
"[N-]=[N+]=C(C(=O)NCCNC(=O)CCCC[C@H]1SC[C@H]2NC(=O)N[C@H]21)C(Nc1ncccn1)c1c[nH]c2ccccc12 (stereo partly drawn) [WC36B, N-(2-(2-diazo-3-(1H-indol-3-yl)-3-(pyrimidin-2-ylamino)propanamido)ethyl)-5-((3aR,4R,6aS)-2-oxohexahydro-1H-thieno[3,4d]imidazol-4-yl)pentanamide]",proteins captured (proteomics),Syk [4],Syk is the single major protein that is captured by the WC36 pharmacophore
same,capture of Syk by streptavidin pulldown,Syk [5],targets Syk in MV4-11 cells
